One assay concerns salivary alpha-amylase. The assay is described as follows: Timed mathematical and word stress test in panelists exposed to fragrance compound; salivary alpha-amylase before vs after stress. Type of assay: in vivo, human. The settings on record: panelists' saliva, before vs immediately after stress test; single fragrance compound in DPG solvent; DPG control 51.9%. As for the experimental part: (§1) Stress was induced in each panelist using a timed mathematical and word test, which was administered to panelists in a small group competition setting to induce stress in each of the panelists. At set time intervals during the test, each panelist was exposed to either a single fragrance compound or to a DPG control.
(§2) Saliva was collected for each panelist before and immediately after the stress test. Saliva samples were assayed for salivary alpha-amylase activity and salivary cortisol levels using a commercially available assay kit (e.g., Salimetrics).
Table 1-A summarizes the percent change (i.e., before stress versus after stress) in the salivary alpha-amylase levels of panelists exposed to fragrance compounds of the present disclosure during the stress test. In addition, the table illustrates the statistical significance of the change in alpha-amylase levels (i.e., p-value or probability value, P) of each of the fragrance compounds as compared to DPG, representing the change in the control (i.e., just DPG without a fragrance compound before stress and after stress).

The subject of the next assay is salivary cortisol. The assay is described as follows: Timed mathematical and word stress test in panelists exposed to fragrance compound; salivary cortisol before vs after stress. The format is in vivo, human. The settings on record: panelists' saliva, before vs immediately after stress test; single fragrance compound in DPG solvent; DPG control 10.8%. As for the experimental part: as §1, §2
Table 1-B summarizes the percent change (i.e., before stress versus after stress) in the salivary cortisol levels of panelists exposed to fragrance compounds of the present disclosure during the stress test. In addition, the table illustrates the statistical significance of the change in salivary cortisol levels (i.e., p-value or probability value, P) of each of the fragrance compounds as compared to DPG, representing the change in the control (i.e., just DPG without a fragrance compound before stress and after stress).

The text below walks through data of patent publication US11384312B2, “Fragrance compositions and methods of use thereof” (TAKASAGO INTERNATIONAL CORPORATION, priority 2016, dated 2022).

For `COC(=O)OC1CCC=CCCC1` (stereo not shown) [1-cyclooct-4-enyl methyl carbonate], in the assay on salivary alpha-amylase, the “% Change in Alpha-amylase (i.e., before versus after stress)” value (“% Change in Alpha-amylase” below) is 15.2%. Also, in the assay with salivary cortisol, the “% Change in Cortisol (i.e., before versus after stress)” value (shortened to “% Change in Cortisol”) stood at 3.5%.
For `CC(C)=CCCC(C)=CC=O` [Citral], in that order: 7.5% and −2.8%.
For `C=CC(C)CCC=C(C)C` (stereo not shown) [Dihyrdomyrcene] the same measures were 23.6% and −8.1%.
As for `CC(=O)O[C@@H]1C[C@@H]2CC[C@@]1(C)C2(C)C` [Bornyl Acetate, L], in the assay with salivary alpha-amylase, the “% Change in Alpha-amylase” value was determined as 27.1%. The “% Change in Cortisol” value in the assay with salivary cortisol is on record as −13.0%.
For `CC1(O)CCC2C(=CCCC2(C)C)C1` (stereo not shown) [2,5,5-trimethyl-1,3,4,4a,6,7-hexahydronaphthalen-2-ol], in that order: 5.1% and 30.0%.
For `CC(C=O)Cc1ccc(C(C)C)cc1` (stereo not shown) [3-(4-isopropylphenyl)-2-methylpropanal], in that order: 4.8% and 17.73%.
As to “(1,7,7-trimethylbicyclo[2.2.1]hept-2-yl)-cyclohexanol”, in the assay on salivary alpha-amylase, the “% Change in Alpha-amylase” value is 3.8%. Further, the “% Change in Cortisol” value with salivary cortisol turned out to be 1.0%.
For `CC1(C)CCC[C@]2(C)[C@H]3CCO[C@]3(C)CC[C@@H]12` [Ambroxide], in that order: −12.2% and 1.1%.
Take `CC(=O)C1(C)CC2=C(CCCC2(C)C)CC1C` (stereo not shown) [1-(1,2,3,4,5,6,7,8-octahydro-2,3,8,8,-tetramethyl-2-naphthyl)ethan-1-one]: the “% Change in Alpha-amylase” value in the assay with salivary alpha-amylase is listed as −2.5%. Moreover, the “% Change in Cortisol” value in the assay with salivary cortisol is on record as −11.9%.
For `CC(C)=CCCC(C)CC=O` (stereo not shown) [Citronellal], in that order: 4.9% and 16.8%.
With `CC(C)(C)C1CCC(=O)C(C(C)(C)C)C1` (stereo not shown) [2,4-di(tert-butyl)-cyclohexan-1-one], the “% Change in Alpha-amylase” value in the assay with salivary alpha-amylase amounted to 10.9%. Also, the “% Change in Cortisol” value in the assay on salivary cortisol worked out at 8.3%.
In the case of `CC12CCC(CC1)C(C)(C)O2` [Eucalyptol], the “% Change in Alpha-amylase” value in the assay with salivary alpha-amylase is listed as −11.1%. The “% Change in Cortisol” value in the assay with salivary cortisol is −12.87%.
For `C=CC(=C)CCCC(C)(C)OC(C)=O` [Myrcenyl Acetate] the same measures were 15.8% and −6.9%.
For `C=CC(C)CCCC(C)(C)OC(C)=O` (stereo not shown) [Dihydromyrcenyl Acetate], in that order: −3.9% and −13.3%.
For `CC12CCC(CC1=O)C2(C)C` (stereo not shown) [Camphor] the same measures were −11.6% and −2.2%.
`CC(=O)OC1CCCCC1C(C)(C)C` (stereo not shown) [2-tert-butylcyclohexyl acetate]: the “% Change in Alpha-amylase” value in the assay with salivary alpha-amylase is given as −4.3%. Also, the “% Change in Cortisol” value in the assay on salivary cortisol is given as −14.2%.
For the compound `CC(C)=CCCC(C)CCO` (stereo not shown) [Citronellol], in the assay on salivary alpha-amylase, the “% Change in Alpha-amylase” value was determined as 1.2%. Moreover, the “% Change in Cortisol” value in the assay with salivary cortisol was found to be 3.4%.
